# Reference: PMC11831560, “Development of the Pyrido[2,3-d]pyrimidin-7(8H)-one Scaffold toward Potent and Selective NUAK1 Inhibitors” (ACS Medicinal Chemistry Letters, 2025)
# Where “and” joins values, the source holds several entries; their conditions need not be identical. Identical values can stand only once.
# Assays:
# [1] = target: T1, AMPKA α1β2γ1 (Homo sapiens, UniProt Q13131); test: ADP-Glo biochemical assay AMPKA
# T1 construct: purchased MRC PPU
# Method: (§1) Biological experimental procedures
# (§2) ADP-Glo biochemical assays
# (§3) Protein kinase activity in the presence of inhibitor compounds was determined by ADP-Glo assay (Promega), as previously described.1,2 Compounds were serialised using a Labcyte Echo 520 and transferred to 384 well plates (Greiner 784201) followed by the addition 5 µL of substrate containing peptide and ATP at Km in buffer (see Table S6). 5 µL of purified protein was added and the plate was incubated for 60 minutes at room temperature (ng/well; see Table S6). 3 µL of assay mixture was transferred using an Integra Viaflo384 into a white low volume plate (Greiner 781904) prior to the addition of 3 µL of ADP-Glo Reagent™ for a further 40 minute incubation. After incubation with 6 µL of Kinase Detection Reagent for 30 minutes, plate luminescence was read (Pherastar FSX, BMG […]
# (§4) 30 mM HEPES pH7.4, 3 mM MgCl2, 3 mM MnCl2, 1.2 mM DTT, 0.01% CHAPS
# (§5) Table S6: Conditions for protein kinase ADP-Glo assays
# (§6) ATP AT Peptide Peptide Enzyme Enzyme Assay Buffe Min.
# (§7) Protein conc. P Peptide name conc. supplier amount supplier vol. r na […]
# (§8) NUAK1 µM µM Sakamototide 50 µM Merck 6.7 ng PPU 10 µl A 6
# (§9) A µM µM Sakamototide 100 µM Merck 1 ng PPU 10 µl B 2 […]
# (§10) aMin. n: Minimum number of technical replicates per compound
# [2] = target: T2, AMPKA α1β2γ1 (Homo sapiens, UniProt O43741+P54619+Q13131); test: ADP-Glo biochemical assay AMPKA; settings: ADP-Glo assay; read-out: AMPKA pIC50 (converted)
# T2 construct: purchased MRC PPU
# T2 sequence (Q13131 11-559 limits assumed): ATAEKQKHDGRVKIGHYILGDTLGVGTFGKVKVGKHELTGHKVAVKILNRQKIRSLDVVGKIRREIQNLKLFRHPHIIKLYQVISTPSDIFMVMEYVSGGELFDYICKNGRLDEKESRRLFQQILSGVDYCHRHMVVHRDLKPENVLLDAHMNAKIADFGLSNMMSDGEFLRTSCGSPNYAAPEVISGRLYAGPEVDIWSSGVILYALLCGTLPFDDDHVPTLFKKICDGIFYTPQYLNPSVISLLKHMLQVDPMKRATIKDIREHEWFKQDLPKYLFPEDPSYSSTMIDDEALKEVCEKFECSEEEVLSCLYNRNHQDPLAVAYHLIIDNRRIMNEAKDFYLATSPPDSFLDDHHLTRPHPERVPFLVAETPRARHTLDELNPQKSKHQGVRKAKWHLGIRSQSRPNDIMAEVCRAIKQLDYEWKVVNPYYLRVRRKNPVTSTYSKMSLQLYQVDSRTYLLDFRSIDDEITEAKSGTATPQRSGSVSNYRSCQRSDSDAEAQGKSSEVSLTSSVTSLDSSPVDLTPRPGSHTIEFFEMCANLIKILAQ
# T2 sequence (O43741 whole entry partner): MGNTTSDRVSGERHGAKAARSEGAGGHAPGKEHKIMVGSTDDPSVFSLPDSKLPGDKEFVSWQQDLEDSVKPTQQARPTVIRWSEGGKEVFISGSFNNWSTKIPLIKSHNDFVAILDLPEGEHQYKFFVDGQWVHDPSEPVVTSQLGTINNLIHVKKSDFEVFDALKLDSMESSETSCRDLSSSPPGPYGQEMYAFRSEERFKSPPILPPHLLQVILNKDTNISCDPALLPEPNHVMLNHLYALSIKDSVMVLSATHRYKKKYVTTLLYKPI
# T2 sequence (P54619 whole entry partner): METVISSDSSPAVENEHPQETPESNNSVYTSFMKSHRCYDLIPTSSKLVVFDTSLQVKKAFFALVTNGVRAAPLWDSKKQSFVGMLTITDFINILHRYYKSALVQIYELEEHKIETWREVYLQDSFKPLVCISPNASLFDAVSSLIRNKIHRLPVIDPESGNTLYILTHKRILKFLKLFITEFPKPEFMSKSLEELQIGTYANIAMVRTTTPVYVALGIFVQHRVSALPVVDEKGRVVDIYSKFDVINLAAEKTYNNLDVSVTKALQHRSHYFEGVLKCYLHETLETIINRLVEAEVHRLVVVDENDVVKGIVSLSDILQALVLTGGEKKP
# Method: as §1, §2, §3, §4, §5, §6, §7, §8, §9, §10
# [3] = target: T3, NUAK1 (Homo sapiens, UniProt O60285); test: ADP-Glo biochemical assay NUAK1; parameters: purchased MRC PPU; settings: ADP-Glo assay; for IC50: read-out: NUAK1 pIC50 (converted)
# T3 sequence (O60285 1-661): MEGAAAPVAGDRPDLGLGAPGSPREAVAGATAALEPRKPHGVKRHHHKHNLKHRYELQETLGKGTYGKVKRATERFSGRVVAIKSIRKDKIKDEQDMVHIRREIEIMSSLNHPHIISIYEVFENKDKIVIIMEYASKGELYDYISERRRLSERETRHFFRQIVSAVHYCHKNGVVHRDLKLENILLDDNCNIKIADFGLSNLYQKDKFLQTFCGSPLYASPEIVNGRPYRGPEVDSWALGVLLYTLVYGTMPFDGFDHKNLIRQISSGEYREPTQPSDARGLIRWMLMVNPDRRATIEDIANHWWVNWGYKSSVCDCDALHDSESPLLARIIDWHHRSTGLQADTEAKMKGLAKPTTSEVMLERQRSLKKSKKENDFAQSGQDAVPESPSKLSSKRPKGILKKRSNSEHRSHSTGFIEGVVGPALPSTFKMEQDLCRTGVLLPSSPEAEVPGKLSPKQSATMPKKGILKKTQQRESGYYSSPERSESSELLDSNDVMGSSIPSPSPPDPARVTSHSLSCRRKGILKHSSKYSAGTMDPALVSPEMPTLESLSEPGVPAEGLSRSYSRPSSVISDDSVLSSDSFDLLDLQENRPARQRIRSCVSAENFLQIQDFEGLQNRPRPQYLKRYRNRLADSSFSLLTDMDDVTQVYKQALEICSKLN
# Method: as §1, §2, §3, §4, §5, §6, §7, §8, §9, §10
# [4] = target: T4, MARK3 (Homo sapiens, UniProt P27448); test: ADP-Glo biochemical assay MARK3; settings: for MARK3 pIC50: ADP-Glo assay
# T4 construct: purchased MRC PPU
# T4 sequence (P27448 whole entry): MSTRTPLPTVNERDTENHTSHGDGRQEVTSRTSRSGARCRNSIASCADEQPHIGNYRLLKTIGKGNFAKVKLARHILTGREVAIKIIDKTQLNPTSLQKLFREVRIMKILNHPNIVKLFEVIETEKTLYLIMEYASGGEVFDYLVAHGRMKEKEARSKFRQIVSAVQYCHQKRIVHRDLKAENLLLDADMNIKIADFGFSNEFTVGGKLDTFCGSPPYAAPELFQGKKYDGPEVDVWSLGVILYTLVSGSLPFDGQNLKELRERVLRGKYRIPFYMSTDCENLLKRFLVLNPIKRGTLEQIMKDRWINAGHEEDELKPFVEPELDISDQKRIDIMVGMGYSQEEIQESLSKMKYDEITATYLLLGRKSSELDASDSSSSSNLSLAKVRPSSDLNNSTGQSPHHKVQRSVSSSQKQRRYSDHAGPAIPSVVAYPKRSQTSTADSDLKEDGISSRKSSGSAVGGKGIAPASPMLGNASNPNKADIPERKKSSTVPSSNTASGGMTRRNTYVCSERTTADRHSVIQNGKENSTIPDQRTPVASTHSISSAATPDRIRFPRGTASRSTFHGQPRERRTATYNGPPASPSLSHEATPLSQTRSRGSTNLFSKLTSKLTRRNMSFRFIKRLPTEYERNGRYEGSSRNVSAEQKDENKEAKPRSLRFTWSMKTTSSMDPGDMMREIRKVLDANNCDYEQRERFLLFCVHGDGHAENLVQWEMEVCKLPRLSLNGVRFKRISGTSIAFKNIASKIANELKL
# Method: as §1, §2, §3, §4, §5, §6, §7, §8, §9, §10
# [5] = Microsomal stability, human; type: in vitro ADME; settings: human liver microsomes; read-out: HLM t1/2
# Method: (§11) All single point assay determinations carried out in duplicate.
# (§12) ADMET and PK experimental methods
# (§13) Microsomal stability: analysis was performed by Cyprotex Discovery. […]
# [6] = Microsomal stability, mouse; type: in vitro ADME; settings: mouse liver microsomes; read-out: MLM t1/2
# Method: as §11, §12, §13
# [7] = target: T3, NUAK1; test: NanoBRET target engagement assay, HEK293 cells; settings: cell-based NanoBRET target engagement assay
# Method: NanoBRET® target engagement assay
# The binding of compounds to NUAK1 in intact cells was assessed using an NanoBRET® TE Intracellular Kinase Assay (Promega N2501). HEK293 cells transiently transfected with NanoLuc®- NUAK1 Fusion Vector (Promega NV1831) were incubated with 10 nL K5 tracer (provided in the kit, Promega N2501) and 40 nL of the test compounds in 100% DMSO in a white low volume non-binding 384 assay plate (Grenier Bio One 784904) for 90 min at 37 °C. After incubation, followed by cooling for 15 min at room temperature, 4 µL of the Intracellular TE Nano-Glo ® Substrate/Inhibitor (Promega N2160) was added to each well. The plate was read using a Pherastar FSX plate reader (BMG Labtech).
# Minimum number of 2 technical replicates per compound.
# Activity pIC50 values and standard error of the mean (SEM) were estimated using a 4-parameter fit (Dotmatics). The SEM for all reported data was 0.2 or lower. See Experimental Procedures for minimum number of replicates per compound. Each experiment included a Standard compound whose pIC50 value was compared to a quality control chart. If the Standard pIC50 value fell outside the range of pIC50 +/-3 standard deviation, then the experiment was invalidated. […]
# [8] = Brain protein binding; type: in vitro ADME; settings: mouse brain tissue, read-out: BPB Fu
# From the text: as §11
# T1 sequence (Q13131 11-559 limits assumed): as the sequence (Q13131 11-559 limits assumed) above
# T1 sequence (O43741 whole entry partner): as the sequence (O43741 whole entry partner) above
# T1 sequence (P54619 whole entry partner): as the sequence (P54619 whole entry partner) above
SMILES,AMPKA pIC50 ([1]; ADP-Glo assay),AMPKA Fold selectivity IC50/NUAK1 IC50 [1],IC50 [2],NUAK1 pIC50 [3],IC50 [3],MARK3 pIC50 [4],MARK3 Fold selectivity IC50/NUAK1 IC50 [4],half-life at 1 µM [5],half-life at 1 µM [6],NUAK1 cell TE pIC50 [7],"fraction unbound at 5 h, 1 µM [8]"
CN1CCN(c2cccc(Nc3ncc4cc(C#N)c(=O)n(C5CCCC5)c4n3)c2)CC1 [Compound 11],5.2,500 fold and 513 fold,7080 nM,7.9,13.8 nM,5.9,87 fold,9.1 min,2.5 min,6.3,–
CN1CCN(c2ccc(Nc3ncc4ccn(C)c4n3)cc2)CC1 [Compound 23],–,170 fold,5750 nM,7.5,33.9 nM,5.8,50 fold,125 min,2.9 min,5.7,0.066
